Data on three compounds can be found in US6486174B2, “Tetrahydroisoquinoline-3-carboxylic acid alkoxyguanidines as integrin antagonists” (3-Dimensional Pharmaceuticals, Inc., priority 2000, dated 2002).

Counter-ions that a name gives are not always drawn.

The IC50 is the concentration that gives 50% inhibition.

The target of this test is T1, human αvβ3 (Homo sapiens, UniProt P05106+P06756).
T1 construct: purchased Chemicon CC1019
T1 sequence (P06756 31-889 limits assumed): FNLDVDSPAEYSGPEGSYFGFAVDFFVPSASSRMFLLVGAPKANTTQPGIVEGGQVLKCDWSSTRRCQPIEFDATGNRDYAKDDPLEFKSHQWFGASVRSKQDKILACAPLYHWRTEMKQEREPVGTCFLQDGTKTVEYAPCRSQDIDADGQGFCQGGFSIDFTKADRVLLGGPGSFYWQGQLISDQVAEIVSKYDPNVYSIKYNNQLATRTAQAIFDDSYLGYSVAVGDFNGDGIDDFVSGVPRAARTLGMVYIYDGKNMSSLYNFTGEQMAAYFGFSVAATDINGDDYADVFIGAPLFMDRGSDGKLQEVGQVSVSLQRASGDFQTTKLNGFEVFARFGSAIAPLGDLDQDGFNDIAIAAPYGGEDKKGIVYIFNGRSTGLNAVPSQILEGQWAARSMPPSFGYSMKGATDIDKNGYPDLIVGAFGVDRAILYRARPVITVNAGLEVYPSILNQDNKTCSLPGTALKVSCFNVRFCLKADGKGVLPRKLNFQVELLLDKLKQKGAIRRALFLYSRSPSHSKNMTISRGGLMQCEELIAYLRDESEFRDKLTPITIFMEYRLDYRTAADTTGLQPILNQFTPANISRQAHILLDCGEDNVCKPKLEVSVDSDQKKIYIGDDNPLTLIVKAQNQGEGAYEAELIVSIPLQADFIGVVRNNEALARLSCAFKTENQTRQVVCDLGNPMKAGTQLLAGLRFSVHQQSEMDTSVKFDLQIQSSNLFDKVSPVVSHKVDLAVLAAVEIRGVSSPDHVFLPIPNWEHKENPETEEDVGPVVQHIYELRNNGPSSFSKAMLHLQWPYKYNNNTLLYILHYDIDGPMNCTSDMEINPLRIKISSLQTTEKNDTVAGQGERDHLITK
T1 sequence (P06756 891-1048 partner limits assumed): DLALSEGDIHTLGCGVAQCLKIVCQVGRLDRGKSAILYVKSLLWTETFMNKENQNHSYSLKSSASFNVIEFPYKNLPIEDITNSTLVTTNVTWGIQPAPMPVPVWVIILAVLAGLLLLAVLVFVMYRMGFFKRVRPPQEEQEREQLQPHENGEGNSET
T1 sequence (P05106 27-788): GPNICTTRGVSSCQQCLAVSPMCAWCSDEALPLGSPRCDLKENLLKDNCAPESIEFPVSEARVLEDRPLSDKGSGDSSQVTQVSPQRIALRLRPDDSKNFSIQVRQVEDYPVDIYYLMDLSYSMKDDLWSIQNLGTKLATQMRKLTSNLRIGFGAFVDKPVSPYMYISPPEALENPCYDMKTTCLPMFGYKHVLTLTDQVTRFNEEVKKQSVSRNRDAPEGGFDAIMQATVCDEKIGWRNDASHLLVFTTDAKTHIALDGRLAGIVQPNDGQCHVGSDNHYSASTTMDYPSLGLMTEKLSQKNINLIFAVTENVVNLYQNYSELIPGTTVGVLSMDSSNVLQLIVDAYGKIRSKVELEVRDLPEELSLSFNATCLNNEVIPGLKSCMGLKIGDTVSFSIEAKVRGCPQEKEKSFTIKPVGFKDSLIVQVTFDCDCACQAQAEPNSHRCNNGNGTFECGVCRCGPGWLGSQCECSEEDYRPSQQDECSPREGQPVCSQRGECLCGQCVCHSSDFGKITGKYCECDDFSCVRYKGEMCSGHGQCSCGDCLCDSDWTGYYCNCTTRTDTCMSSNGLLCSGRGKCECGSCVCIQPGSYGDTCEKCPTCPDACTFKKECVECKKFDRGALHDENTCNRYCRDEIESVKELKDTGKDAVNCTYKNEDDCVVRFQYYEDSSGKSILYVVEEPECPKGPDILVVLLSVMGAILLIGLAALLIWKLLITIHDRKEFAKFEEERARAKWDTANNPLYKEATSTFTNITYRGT
The test is described as follows: αvβ3-vitronectin assay (ELISA, inhibition of biotinylated vitronectin binding). As to conditions: plate-coated human αvβ3, biotinylated human vitronectin 0.5 μg/mL, room temperature; read-out: αvβ3 IC50 (Inhibition of the αvβ3-Vitronectin Interaction). As for the experimental part:
The assay was based on the method of Niiya (Niiya, K., et al, Blood 70:475-483 (1987)). All the steps were performed at room temperature. Costar 9018 flat-bottom 96-well ELISA plates were coated overnight with 100 μL/well of 0.4 μg/mL human αvβ3 (Chemicon CC1019) in TS buffer (20 mM Tris-HCl pH 7.5, 150 mM NaCl, 1 mM CaCl2, 1 mM MgCl2, 1 mM MnCl2). Plates were blocked for 2 hours with 200 μL/well of TS buffer containing 1% BSA (TSB buffer), and washed 3 times with 200 μL/well of PBST buffer. Controls or test compound were mixed with 0.5 μg/mL of human vitronectin (Chemicon CC080) that had been biotinylated in-house with sulfo-NHS-LC-LC-biotin (Pierce 21338, 20:1 molar ratio), and 100 μL/well of these solutions (in TSB buffer) were incubated for 2 hours. The plate was then washed 5 times with PBST buffer, and 100 μL/well of 0.25 μg/mL NeutrAvidin-horseradish peroxidase conjugate (Pierce 31001) in TSB buffer was incubated for 1 hour. Following a 5-fold PBST buffer wash, the plate was developed by adding 100 μL/well of 0.67 mg o-phenylenediamine dihydrochloride per mL of 0.012% H2O2, 22 mM sodium citrate, 50 mM sodium phosphate, pH 5.0 at room temperature. The reaction was stopped with 50 μL/well of 2M H2SO4, and the absorbence at 492 nm was recorded. Percent (%) inhibition was calculated from the average of two separate determinations relative to buffer controls (no test compound added), and a four parameter fit (Marquardt, D. W., J. Soc. Indust. Appl. Math. 11:431-441 (1963)) was used to estimate the half maximal inhibition concentration (IC50).
For orientation: In an ELISA, binding on a coated surface is turned into a signal by an enzyme label.
As for `COc1ccc(OC)c(S(=O)(=O)N2Cc3cc(OCCCONC(=N)N)ccc3C[C@H]2C(=O)O)c1` [Example 1, (3S)-7-[3-(Amidinoaminooxy)propoxy]-2-[(2,5-dimethoxyphenyl)sulfonyl]-1,2,3,4-tetrahydroisoquinoline-3-carboxylic acid trifluoroacetic Acid Salt], the IC50 came out at 73 nM.

As for `N=C(N)NOCCCOc1ccc2c(c1)CN(S(=O)(=O)c1ccccc1)[C@H](C(=O)O)C2` [Example 2, (3S)-7-[3-(Amidinoaminooxy)propoxy]-2-(phenylsulfonyl)-1,2,3,4-tetrahydroisoquinoline-3-carboxylic Acid Trifluoroacetic Acid Salt], the IC50 is 1100 nM.

For `N=C(N)NOCCCOc1ccc2c(c1)CN(S(=O)(=O)c1ccc3ccccc3c1)[C@H](C(=O)O)C2` [Example 3, (3S)-7-[3-(Amidinoaminooxy)propoxy]-2-(2-naphthylsulfonyl)-1,2,3,4-tetrahydroisoquinoline-3-carboxylic Acid Trifluoroacetic Acid Salt], the IC50 was 500 nM.
